{"source": "paper PMC6471062", "about": "“Suppression of the Ubiquitin Pathway by Small Molecule Binding to Ubiquitin Enhances Doxorubicin Sensitivity of the Cancer Cells” (Molecules, 2019)", "system": "USP4", "assay": "TOP flash luciferase reporter assay of β-catenin with USP4", "assay_type": "cell-based", "settings": "HEK293T, CR 0–30 μM, 24 h", "procedure": "Luciferase reporter assays were performed as described previously. Briefly, HEK293T cells were seeded in 12-well plates at 1 × 10^5 cells per well and incubated for 24 h before being transfected with either SRT-USP4 or Myc-β-catenin expression plasmids, along with the T cell factor (TCF) reporter plasmid (TOP flash) driving the expression of the luciferase gene. Equal amounts of total DNA in transfections were maintained by adding the control plasmids in each transfection experiment. 24 h post-transfection, cells were treated with CR (0–30 µM) for 24 h. After that, cells were harvested for luciferase reporter assays. Luciferase activity was measured according to the manufacturer’s instructions (Promega, Madison, WI, USA). page 5: (a) (b) Figure S5. CR inhibits USP4 deubiquitinase activity on its substrate, ß-catenin on the TOP flash reporter activity. (a) Cells were co-transfected with either SRT-USP4 or Myc‐β‐catenin expression plasmids, and TOP flash reporter plasmid containing a β‐catenin‐induced TCF reporter. 24-h post-transfection, CR was added at increasing concentrations (0 – 30 µM) and the cells were further cultured for 24 h. A top-flash activity assay of ß-catenin was conducted and (b) Western blot analysis with the indicated antibody was performed in parallel. […]"}
{"compound": "Nc1c(/N=N/c2ccc(-c3ccc(/N=N/c4cc(S(=O)(=O)O)c5ccccc5c4N)cc3)cc2)cc(S(=O)(=O)O)c2ccccc12", "note": "[CR, Congo red]", "values": [{"measurement": "Effect on USP4-enhanced β-catenin transcriptional activity (TOP flash)", "value": "this enhancement was antagonized by CR treatment"}]}
